From patent US11098072B2, “Alkenyl and beta-substituted phosphonates as antimicrobial agents” (The George Washington University, priority 2017, dated 2021) come the findings set out here.

Converted amounts (≈) assume the structure as drawn. Read-outs that look alike come from different tables or passages of the source.

In one assay the test system is P. falciparum. In words: Growth inhibition against P. falciparum. The class given is cell-based. Conditions: for IC50: Plasmodium falciparum.
The target in the next assay is T1, P. falciparum DXR (Plasmodium falciparum, UniProt Q8IKG4).
T1 sequence (Q8IKG4 73-488): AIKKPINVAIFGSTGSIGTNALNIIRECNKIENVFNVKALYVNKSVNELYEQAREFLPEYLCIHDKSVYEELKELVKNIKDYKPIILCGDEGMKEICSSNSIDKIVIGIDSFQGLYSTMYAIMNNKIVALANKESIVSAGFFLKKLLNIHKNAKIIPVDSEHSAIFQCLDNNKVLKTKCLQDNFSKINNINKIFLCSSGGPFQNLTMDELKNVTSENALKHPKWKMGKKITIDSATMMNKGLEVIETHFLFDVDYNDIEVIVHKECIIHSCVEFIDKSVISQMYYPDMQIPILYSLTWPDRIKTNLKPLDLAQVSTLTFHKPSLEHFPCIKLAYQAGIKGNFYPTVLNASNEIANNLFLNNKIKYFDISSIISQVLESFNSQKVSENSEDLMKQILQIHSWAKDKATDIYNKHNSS
In words: Inhibition of P. falciparum DXR enzyme. It is filed as biochemical. The following applies: for Pf DXR (% Residue): percent remaining enzyme activity at 100 μM compound; for IC50: Table 2, phosphonic acid salts, read-out: Pf DXR IC50.

The subject of assay [1] is P. falciparum had1 mutant strain. It is filed as cell-based. Conditions: in words.
For a further assay, the system named is Mtb. In words: Mtb growth inhibition (MIC99) in 7H9 and GAST-Fe media. It is filed as cell-based, M. tuberculosis. Conditions: Mycobacterium tuberculosis. How it is done: Selected analogs were tested for the growth inhibition against P. falciparum and Mtb in both rich media (7H9) and minimal media (GAST-Fe) following reported procedures.
In the next assay the test system is HepG2 cells. Briefly: HepG2 cell inhibition (cytotoxicity) assay. The class given is cell-based. Conditions: Homo sapiens, HepG2; Table 6, cytotoxicity; read-out: HepG2 IC50. As to the method:
For cytotoxicity assays, HepG2 cells (ATCC HB-8065) were grown in DMEM supplemented with 4 mM L-glutamine (Gibco #11966-025) with either 4.5 g/L D-glucose or 1.8 g/L galactose as carbon source. Cells were trypsinized, resuspended in the respective medium (DMEM/glutamine/glucose or DMEM/glutamine/galactose) to 4×10^5 cells/mL and 50 μL/well transferred to flat-bottom white opaque tissue culture plates (Falcon #353296) containing 50 μL/well of the respective medium with test compound. Compound concentrations were two-fold dilutions ranging from 50 μM to 0.049 μM as well as the drug-free DMSO-only control. All concentrations were tested in duplicate for each carbon source. After 24 h incubation at 5% CO2, 37° C., 10 μL/well of Celltiter-Glo reagent (Promega #G9241) was added and luminescence recorded after 20 min incubation in the dark.

Setting [2] is: Table 3, diethyl phosphonate analogs.
Setting [3] is: Table 4, growth inhibition, read-out: Pf IC50.
The mark [4] stands for this setting: Table 3, diethyl phosphonate analogs, read-out: P.f. IC50.
[5] abbreviates: minimal media (GAST-Fe), read-out: Mtb MIC99 Gast/Fe.
Setting [6] is: rich media (7H9), read-out: Mtb MIC99 7H9.
Where [7] appears, read: Table 6, growth inhibition, read-out: P.f. IC50.

Regarding `CCOP(=O)(/C=C/CN(O)C=O)OCC` [Compound 11a, Diethyl [(1E)-3-(N-hydroxyformamido)prop-1-en-1-yl]phosphonate], the “P.f. IC50” value in the assay on P. falciparum (setting [2]) was >100 µg/mL.
Consider `CCOP(=O)(/C=C/CN(O)C(=O)C(F)(F)F)OCC` [Compound 11b, Diethyl [(1E)-3-(2,2,2-trifluoro-N-hydroxyacetamido)prop-1-en-1-yl]phosphonate], for which, in the assay on P. falciparum (setting [2]), the “P.f. IC50” value was >100 µg/mL.
For the compound `CCOP(=O)(/C=C/CN(O)C(=O)OC)OCC` [Compound 11c, Methyl N-[(2E)-3-(diethoxyphosphoryl)prop-2-en-1-yl]-N-hydroxycarbamate], the “P.f. IC50” value with P. falciparum (setting [2]) was >100 µg/mL.
The term IC50 denotes the midpoint of a concentration-inhibition curve. Consider `O=C(N(O)C/C=C/P(=O)([O-])O)C(F)(F)F.[Na+]` [Compound 12b, Sodium hydrogen [(1E)-3-(2,2,2-trifluoro-N-hydroxyacetamido)prop-1-en-1-yl]phosphonate], for which the IC50 with P. falciparum (setting [3]) turned out to be 113 µM. Also, the “Pf DXR (% Residue)” value on P. falciparum DXR is “(36.96) %”.
On to `COC(=O)N(O)C/C=C/P(=O)(O)O` [Compound 12c, Diammonium [(1E)-3-[hydroxy(methoxycarbonyl)amino]prop-1-en-1-yl]phosphonate], for which the values for the IC50 with P. falciparum (read-out: Pf IC50) and on P. falciparum DXR were 28.6 µM and 14.5 µM, respectively.
For `CCOP(=O)(/C=C/CN(OC(C)c1ccccc1)C(C)=O)OCC` (stereo not shown) [Compound 15d, Diethyl [(1E)-3-[N-(1-phenylethoxy)acetamido]prop-1-en-1-yl]phosphonate], in the assay on P. falciparum (setting [4]), the IC50 came out at 23.5 µg/mL.
In the case of `CCOP(=O)(/C=C/CN(OCc1ccc(C(C)C)cc1)C(C)=O)OCC` [Compound 15e, Diethyl [(1E)-3-(N-{[4-(propan-2-yl)phenyl]methoxy}acetamido)prop-1-en-1-yl]phosphonate], the IC50 in the assay with P. falciparum (setting [4]) was determined as 21.1 µg/mL.
Regarding `CCOP(=O)(/C=C/CN(OCc1ccc2ccccc2c1)C(C)=O)OCC` [Compound 15f, Diethyl [(1E)-3-{N-[(naphthalen-2-yl)methoxy]acetamido}prop-1-en-1-yl]phosphonate], in the assay with P. falciparum (setting [4]), the IC50 was 29.6 µg/mL.
Still for that read-out and setting: the value for `CCOP(=O)(/C=C/CN(OCc1ccc(-c2ccccc2)cc1)C(C)=O)OCC` [Compound 15g, Diethyl [(1E)-3-{N-[(4-phenylphenyl)methoxy]acetamido}prop-1-en-1-yl]phosphonate] was 13.7 µg/mL.
For `CC(=O)N(C/C=C/P(=O)(O)O)OC(C)c1ccccc1` (stereo not shown) [Compound 16d, Sodium hydrogen [(1E)-3-[N-(1-phenylethoxy)acetamido]prop-1-en-1-yl]phosphonate], the IC50 in the assay on P. falciparum (setting [3]) amounted to 1.2 µM; on P. falciparum DXR it was 2.54 µM.
Take `CC(=O)N(C/C=C/P(=O)([O-])O)OCc1ccc(C(C)C)cc1.[Na+]` [Compound 16e, Sodium hydrogen [(1E)-3-(N-{[4-(propan-2-yl)phenyl]methoxy}acetamido)prop-1-en-1-yl]phosphonate]: the “resistance of had1 parasites compared with wild-type” value in assay [1] is given as “more resistant”. For the same compound, the IC50 with P. falciparum (setting [3]) worked out at 1.1 µM; at P. falciparum DXR, 2.11 µM.
Regarding `CC(=O)N(C/C=C/P(=O)([O-])O)OCc1ccc2ccccc2c1.[Na+]` [Compound 16f, Sodium hydrogen [(1E)-3-{N-[(naphthalen-2-yl)methoxy]acetamido}prop-1-en-1-yl]phosphonate], the IC50 in the assay on P. falciparum (setting [3]) is 26 µM. Also, the “Pf DXR (% Residue)” value at P. falciparum DXR is “(25) %”.
Turning to `CC(=O)N(C/C=C/P(=O)(O)O)OCc1ccc(-c2ccccc2)cc1` [Compound 16g, Sodium hydrogen [(1E)-3-{N-[(4-phenylphenyl)methoxy]acetamido}prop-1-en-1-yl]phosphonate], the IC50 came to 2.3 µM with P. falciparum (setting [3]) and 4.53 µM at P. falciparum DXR.
As for `CC(C)(C)C(=O)OCOP(=O)(/C=C/CN(O)C(=O)C(F)(F)F)OCOC(=O)C(C)(C)C` [Compound 18b, [({[(2,2-dimethylpropanoyl)oxy]methoxy}[(1E)-3-(2,2,2-trifluoro-N-hydroxyacetamido)prop-1-en-1-yl]phosphoryl)oxy]methyl 2,2-dimethylpropanoate], in the assay on P. falciparum (setting [3]), the IC50 was determined as 14.2 µM.
Still for that read-out and setting: the same measure for `COC(=O)N(O)C/C=C/P(=O)(OCOC(=O)C(C)(C)C)OCOC(=O)C(C)(C)C` [Compound 18c, [({[(2,2-dimethylpropanoyl)oxy]methoxy}[(1E)-3-[hydroxy(methoxycarbonyl)amino]prop-1-en-1-yl]phosphoryl)oxy]methyl 2,2-dimethylpropanoate]: 23.7 µM; for `CC(=O)N(C/C=C/P(=O)(OCOC(=O)C(C)(C)C)OCOC(=O)C(C)(C)C)OCc1ccc(C(C)C)cc1` [Compound 19e, [({[(2,2-dimethylpropanoyl)oxy]methoxy}[(1E)-3-(N-{[4-(propan-2-yl)phenyl]methoxy}acetamido)prop-1-en-1-yl]phosphoryl)oxy]methyl 2,2-dimethylpropanoate]: 55.1 µM; for `CC(=O)N(C/C=C/P(=O)(OCOC(=O)C(C)(C)C)OCOC(=O)C(C)(C)C)OCc1ccc2ccccc2c1` [Compound 19f, [({[(2,2-dimethylpropanoyl)oxy]methoxy}[(1E)-3-{N-[(naphthalen-2-yl)methoxy]acetamido}prop-1-en-1-yl]phosphoryl)oxy]methyl 2,2-dimethylpropanoate]: 49.9 µM.
Take `CC(=O)N(C/C=C/P(=O)(OCOC(=O)C(C)(C)C)OCOC(=O)C(C)(C)C)OCc1ccc(-c2ccccc2)cc1` [Compound 19g, [({[(2,2-dimethylpropanoyl)oxy]methoxy}[(1E)-3-{N-[(4-phenylphenyl)methoxy]acetamido}prop-1-en-1-yl]phosphoryl)oxy]methyl 2,2-dimethylpropanoate]: the IC50 in the assay with P. falciparum (setting [3]) was found to be 43.2 µM.
Take `CCOP(=O)(/C=C/CN(O)C(=O)c1ccccc1)OCC` [Compound 31a, Diethyl [(1E)-3-(N-hydroxy-1-phenylformamido)prop-1-en-1-yl]phosphonate]: the MIC99 in the assay on Mtb (setting [5]) and with Mtb (setting [6]) was > 100 µg/mL throughout. Also, in the assay on P. falciparum (setting [7]), the IC50 is > 100 µg/mL.
On to `CCOP(=O)(/C=C/CN(O)C(=O)Cc1ccccc1)OCC` [Compound 31b, Diethyl [(1E)-3-(N-hydroxy-2-phenylacetamido)prop-1-en-1-yl]phosphonate], for which the MIC99 in the assay on Mtb (setting [6]) was > 100 µg/mL. The IC50 with P. falciparum (setting [7]) is 110 µg/mL.
With `CCOP(=O)(/C=C/CN(O)C(=O)CCc1ccccc1)OCC` [Compound 31c, Diethyl [(1E)-3-(N-hydroxy-3-phenylpropanamido)prop-1-en-1-yl]phosphonate], the MIC99 with Mtb (setting [5]) and in the assay with Mtb (setting [6]) was > 100 µg/mL in each case. In addition, the IC50 in the assay with P. falciparum (setting [7]) was > 100 µg/mL.
In the case of `CCOP(=O)(/C=C/CN(O)C(=O)CCCc1ccccc1)OCC` [Compound 31d, Diethyl [(1E)-3-(N-hydroxy-4-phenylbutanamido)prop-1-en-1-yl]phosphonate], the MIC99 in the assay with Mtb (setting [5]) and with Mtb (setting [6]) was > 100 µg/mL throughout. For the same compound, the IC50 in the assay with P. falciparum (setting [7]) was 11.1 µg/mL.
As to `CC(C)(C)C(=O)OCOP(=O)(/C=C/CN(O)C(=O)c1ccccc1)OCOC(=O)C(C)(C)C` [Compound 33a, [({[(2,2-dimethylpropanoyl)oxy]methoxy}[(1E)-3-(N-hydroxy-1-phenylformamido)prop-1-en-1-yl]phosphoryl)oxy]methyl 2,2-dimethylpropanoate], the figures for the IC50 with HepG2 cells and with P. falciparum (setting [7]) were > 50 µM and 0.097 µg/mL, respectively. In assay [1], the “resistance of had1 parasites compared with wild-type” value is listed as “more resistant”. Also, in the assay on Mtb (setting [6]), the MIC99 came to 50 µg/mL (≈ 103 µM).
With `CC(C)(C)C(=O)OCOP(=O)(/C=C/CN(O)C(=O)Cc1ccccc1)OCOC(=O)C(C)(C)C` [Compound 33b, [({[(2,2-dimethylpropanoyl)oxy]methoxy}[(1E)-3-(N-hydroxy-2-phenylacetamido)prop-1-en-1-yl]phosphoryl)oxy]methyl 2,2-dimethylpropanoate], the MIC99 in the assay on Mtb (setting [5]) is 74 µg/mL (≈ 148 µM); with Mtb (setting [6]), 100 µg/mL (≈ 200 µM). Also, the IC50 in the assay with P. falciparum (setting [7]) is 0.152 µg/mL.
With `CC(C)(C)C(=O)OCOP(=O)(/C=C/CN(O)C(=O)CCCc1ccccc1)OCOC(=O)C(C)(C)C` [Compound 33d, [({[(2,2-dimethylpropanoyl)oxy]methoxy}[(1E)-3-(N-hydroxy-4-phenylbutanamido)prop-1-en-1-yl]phosphoryl)oxy]methyl 2,2-dimethylpropanoate], the figures for the MIC99 in the assay on Mtb (setting [5]) and with Mtb (setting [6]) were 37 µg/mL (≈ 70.1 µM) and > 100 µg/mL, respectively. Further, the IC50 with P. falciparum (setting [7]) is 2.4 µg/mL.
